According to patent US12686697B2, “Advantageous morphic form of AT-527 hemi-sulfate salt” (Atea Pharmaceuticals, Inc., priority 2021, dated 2026):
“Also recorded” adds a separate entry of the source. Where a name gives a salt, the structure may show the parent alone.

Experiments:
[1] = clinical trials; cited from earlier work
[2] = test system: HCV; details: non-cirrhotic and cirrhotic HCV-infected patients, single and multiple doses; cited from earlier work
[3] = in vivo; cited from earlier work
[4] = test system: SARS-CoV-2; details: cited from earlier work
[5] = Stability of 5 kg lot of Form III at 25° C.±2° C., 60% RH±5% RH; format: physicochemical; details: stored at about 25° C. and about 60% RH, three months
Procedure: Example 6. Stability of 5 kg Lot of Form III at 25° C.±2° C., 60% RH±5% RH
These properties are advantageous for use in clinical trials or clinical use of the compound.

[6] = Stability of 5 kg lot of Form III at 40° C.±2° C., 75% RH±5% RH; format: physicochemical; details: 40° C. and 75% RH, three months
Procedure: Example 7. Stability of 5 kg Lot of Form III at 40° C.±2° C., 75% RH±5% RH
Further studies on the stability of Compound A Form III were conducted at elevated temperature and humidity. These conditions are less desirable for the storage of active pharmaceutical ingredients and may lead to accelerated degradation.

[7] = Stability of 0.1 kg lot of Form III under ambient conditions (15° C.-25° C., ambient RH); format: physicochemical; details: 12 months / one year
Procedure: Example 8. Stability of 0.1 kg Lot of Form III
Additional stability studies were performed for smaller lots of Compound A Form III. These studies were performed in stability chambers set to 25° C. and 60% RH, 40° C. and 75% RH for up to 8 weeks. In other embodiments the studies can be performed for up to 4 weeks, for up to 2 weeks and for one week. The stability studies were also performed under ambient conditions, 15-25° C. with no control over the humidity.

Compound | Drug related serious adverse events [1] | Antiviral reduction in HCV-infected cohorts [2] | Tissue concentration [3] | Potency against SARS-CoV-2 [4] | Absorption of water from the atmosphere upon storage [5] | Degradation measured by HPLC-UV [5] | Degradation (decrease in purity, generation of impurities) [6] | Decrease in purity [7]
CNc1nc(N)nc2c1ncn2[C@@H]1O[C@H](CO[P@@](=O)(N[C@@H](C)C(=O)OC(C)C)Oc2ccccc2)[C@@H](O)[C@@]1(C)F [Compound A, hemi-sulfate salt of isopropyl ((S)-(((2R,3R,4R,5R)-5-(2-amino-6-(methylamino)-9H-purin-9-yl)-4-fluoro-3-hydroxy-4-methyltetrahydrofuran-2-yl)methoxy)(phenoxy)phosphoryl)-L-alaninate] | no drug related serious adverse events observed | significant antiviral reduction | disproportionately concentrate in the lung and the liver | potent | – | – | – | –
CNc1nc(N)nc2c1ncn2[C@@H]1O[C@H](CO[P@@](=O)(N[C@@H](C)C(=O)OC(C)C)Oc2ccccc2)[C@@H](O)[C@@]1(C)F [Compound A Form III, hemi-sulfate salt of isopropyl ((S)-(((2R,3R,4R,5R)-5-(2-amino-6-(methylamino)-9H-purin-9-yl)-4-fluoro-3-hydroxy-4-methyltetrahydrofuran-2-yl)methoxy)(phenoxy)phosphoryl)-L-alaninate] | – | – | – | – | does not appreciably absorb water | no measurable degradation | no measurable decrease in purity or generation of impurities; also recorded: no measurable degradation | little or no decrease; also recorded: no measurable decrease in purity
